Data on 17 molecules can be found in US20220056019A1, “FARNESOID X RECEPTOR AGONISTS AND USES THEREOF” (Metacrine, Inc., priority 2018, published 2022).

The structures appear in SMILES notation.

For this assay, the target named is T1, hFXR (Homo sapiens, UniProt Q96RI1).
T1 construct: expressed in transfected cells; host or cells: CV-1 cells
T1 sequence (Q96RI1 1-486): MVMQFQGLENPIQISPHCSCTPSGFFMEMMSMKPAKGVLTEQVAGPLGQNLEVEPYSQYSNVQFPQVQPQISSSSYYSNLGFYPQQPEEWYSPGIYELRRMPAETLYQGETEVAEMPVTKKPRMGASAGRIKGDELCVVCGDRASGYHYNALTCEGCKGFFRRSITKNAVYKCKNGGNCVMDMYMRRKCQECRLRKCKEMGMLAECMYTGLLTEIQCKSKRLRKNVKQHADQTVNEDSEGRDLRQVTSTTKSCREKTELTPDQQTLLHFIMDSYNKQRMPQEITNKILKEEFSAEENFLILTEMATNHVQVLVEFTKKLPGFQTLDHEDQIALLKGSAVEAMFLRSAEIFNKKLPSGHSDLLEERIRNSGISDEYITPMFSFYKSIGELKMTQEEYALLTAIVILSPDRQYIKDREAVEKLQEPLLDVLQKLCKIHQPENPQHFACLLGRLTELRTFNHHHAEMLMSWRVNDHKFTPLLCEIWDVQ
T1 sequence (P19793 1-462 partner): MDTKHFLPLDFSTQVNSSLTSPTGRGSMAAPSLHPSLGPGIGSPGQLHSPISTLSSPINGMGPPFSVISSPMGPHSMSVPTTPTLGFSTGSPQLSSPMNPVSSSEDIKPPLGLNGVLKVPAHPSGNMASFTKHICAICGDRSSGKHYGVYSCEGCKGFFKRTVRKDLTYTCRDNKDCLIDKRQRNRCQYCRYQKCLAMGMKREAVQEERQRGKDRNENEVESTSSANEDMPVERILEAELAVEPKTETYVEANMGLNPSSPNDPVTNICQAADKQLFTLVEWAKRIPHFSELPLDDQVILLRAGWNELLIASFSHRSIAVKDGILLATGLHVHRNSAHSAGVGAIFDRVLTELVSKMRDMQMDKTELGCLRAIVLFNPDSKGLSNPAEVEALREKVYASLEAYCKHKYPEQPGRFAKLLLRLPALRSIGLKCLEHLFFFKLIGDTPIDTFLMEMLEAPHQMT
Kind of assay: In Vitro FXR Assay (TK): TK-ECRE-luc reporter in transfected CV-1 cells. Type of assay: cell-based. Particulars: 18 hrs incubation, luminescence. How it is done: Example B-1: In Vitro FXR Assay (TK)
CV-1 cells were seeded at a density of 2,000,000 cells in a T175 flask with DMEM+10% charcoal double-stripped FBS and incubated at 37° C. in 5% CO2 for 18 h (O/N).
After 18 h of incubation, the medium in the T175 flask was changed with fresh DMEM+10% charcoal super-stripped serum. In a polypropylene tube, 2500 μL OptiMEM (Life Technologies, Cat #31985-062) was combined with expression plasmids for hFXR, hRXR, TK-ECRE-luc and pCMX-YFP. The tube was then briefly vortexed and incubated at room temperature for 5 minutes. Transfection reagent (X-tremeGENE HP from Roche, Cat #06 366 236 001) was added to the OptiMEM/plasmid mixture vortexed and incubated at room temperature for 20 minutes. Following incubation, the transfection reagent/DNA mixture complex was added to cells in the T175 flask and the cells were incubated at 37° C. in 5% CO2 for 18 h (O/N).
Compounds were serially diluted in DMSO and added to transfected CV-1 cells. The cells were then incubated for 18 hrs. The next day cells were lysed and examined for luminescence.
For `COc1ccc([C@H]2CC[C@H](CN(c3cc(-c4coc(C(C)C)n4)ccn3)C(=O)[C@H]3CC[C@H](OC(=O)NC4COC4)CC3)CC2)cc1C` [Compound 2.52, trans-4-((4-(2-Isopropyloxazol-4-yl)pyridin-2-yl)(((trans)-4-(4-methoxy-3-methylphenyl)cyclohexyl)methyl)carbamoyl)cyclohexyl oxetan-3-ylcarbamate], the concentration giving a half-maximal response (EC50) was at most 50 nM.

On to `CCc1ncc(-c2ccnc(N(CC34CCC(c5ccc(OC)c(C)c5)(CC3)CC4)C(=O)[C@H]3CC[C@H](OC(=O)N4CC(CO)C4)CC3)c2)s1` [Compound 4.37, 4-((4-(2-Ethylthiazol-5-yl)pyridin-2-yl)((4-(4-methoxy-3-methylphenyl)bicyclo[2.2.2]octan-1-yl)methyl)carbamoyl) cyclohexyl3-(hydroxymethyl)azetidine- trans-1-carboxylate], for which the concentration giving a half-maximal response (EC50) lay in the range of 50 to 1000 nM.

With `COc1ccc(C23CCC(CN(c4cc(-c5cnn(C(C)C)c5)ccn4)C(=O)[C@H]4CC[C@H](OC(=O)N5CC(O)C5)CC4)(CC2)CC3)cc1C` [Compound 4, 4-((4-(1-Isopropyl-1H-pyrazol-4-yl)pyridin-2-yl)((4-(4-methoxy-3-methylphenyl)bicyclo[2.2.2]octan-1-yl)methyl)carbamoyl)cyclohexyl 3-hydroxyazetidine-trans-1-carboxylate], the EC50 was at most 50 nM.

Turning to `COc1ccc(C23CCC(CN(c4cc(-c5cnn(C(C)C)c5)ccn4)C(=O)[C@H]4CC[C@H](NC(=O)OCCO)CC4)(CC2)CC3)cc1C` [Compound 7, (trans)-2-Hydroxyethyl (4-((4-(1-isopropyl-1H-pyrazol-4-yl)pyridine-2-yl)((4-(4-methoxy-3-methylphenyl)bicyclo[2.2.2]octan-1-yl)methyl)carbamoyl)cyclohexyl)carbamate], the EC50 is at most 50 nM.

On to `COc1ccc([C@H]2CC[C@H](CN(c3cccc(-c4cnn(C(C)C)c4)c3)C(=O)[C@H]3CC[C@H](NC(=O)C4CCOCC4)CC3)CC2)cc1C` [Compound 10.02, N-(trans-4-((3-(1-Isopropyl-1H-pyrazol-4-yl)phenyl)((trans-4-(4-methoxy-3-methylphenyl)cyclohexyl)methyl)carbamoyl)cyclohexyl)tetrahydro-2H-pyran-4-carboxamide], for which the concentration for a half-maximal effect (EC50) is at most 50 nM.

In turn, `COc1ccc(C23CCC(CN(c4cc(-c5cnn(C6CCSCC6)c5)ccn4)C(=O)[C@H]4CC[C@H](OC(=O)N5CC(O)C5)CC4)(CC2)CC3)cc1C` [Compound 26.21, 4-(((4-(4-Methoxy-3-methylphenyl)bicyclo[2.2.2]octan-1-yl)methyl)(4-(1-(tetrahydro-2H-thiopyran-4-yl)-1H-pyrazol-4-yl)pyridin-2-yl)carbamoyl)cyclohexyl trans-3-hydroxyazetidine-1-carboxylate] gave an EC50 of at most 50 nM.

`COc1ccc(C23CCC(CN(c4ccc(Cl)c(-c5cnn(C(C)C)c5)c4)C(=O)[C@H]4CC[C@H](OC(=O)N5CC(O)C5)CC4)(CC2)CC3)cc1C` [Compound 26.04, 4-((4-Chloro-3-(1-isopropyl-1H-pyrazol-4-yl)phenyl)((4-(4-methoxy-3-methylphenyl)bicyclo[2.2.2]octan-1-yl)methyl)carbamoyl)(trans-cyclohexyl) 3-hydroxyazetidine-1-carboxylate] gave a concentration for a half-maximal effect (EC50) of at most 50 nM.

As for `COc1ccc(C23CCC(CN(c4cc(-n5cc(C(C)C)cn5)ccn4)C(=O)[C@H]4CC[C@H](OC(=O)N5CC(O)C5)CC4)(CC2)CC3)cc1C` [Compound 23.14, 4-((4-(4-Isopropyl-1H-pyrazol-1-yl)pyridin-2-yl)((4-(4-meth-oxy-3-methylphenyl)bi-cyclo[2.2.2]octan-1-yl)meth-yl)carbamoyl)cyclohexyl trans-3-hydroxyazetidine-1-carboxylate], the EC50 was at most 50 nM.

The molecule `COc1c(F)cc(C23CCC(CN(c4cc(-c5cnn(C(C)C)c5)ccn4)C(=O)[C@H]4CC[C@H](OC(=O)N5CC(O)C5)CC4)(CC2)CC3)cc1F` [Compound 26.06, 4-(((4-(3,5-Difluoro-4-methoxyphenyl)bicyclo[2.2.2]octan-1-yl)methyl)(4-(1-isopropyl-1H-pyrazol-4-yl)pyridin-2-yl)carbamoyl)cyclohexyl trans-3-hydroxyazetidine-1-carboxylate] displayed a concentration for a half-maximal effect (EC50) of at most 50 nM.

Turning to `COc1ccc(C23CCC(CN(c4cc(-c5cnc(C(C)C)s5)ccn4)C(=O)[C@H]4CC[C@H](OC(=O)N5CC(O)C5)CC4)(CC2)CC3)cc1C` [Compound 4.21, 4-((4-(2-Isopropylthiazol-5-yl)pyridin-2-yl)((4-(4-methoxy-3-methylphenyl)bicyclo[2.2.2]octan-1-yl)methyl)carbamoyl) cyclohexyl 3-hydroxyazetidine-trans-1-carboxylate], the 50% effective concentration (EC50) was at most 50 nM.

`COc1ccc(C23CCC(CN(c4cc(-c5cnn(C6CCCC6)c5)ccn4)C(=O)[C@H]4CC[C@H](OC(=O)N5CC(O)C5)CC4)(CC2)CC3)cc1C` [Compound 23.07, 4-((4-(1-Cyclopentyl-1H-pyrazol-4-yl)pyridin-2-yl)((4-(4-methoxy-3-methylphenyl)bicyclo[2.2.2]oc-tan-1-yl)methyl)carbamoyl)(trans-cyclohexyl) 3-hydroxy-azetidine-1-carboxylate] had an EC50 of at most 50 nM.

`COc1ccc([C@H]2CC[C@H](CN(c3cc(-c4coc(C5CC5)n4)ccn3)C(=O)[C@H]3CC[C@H](OC(=O)N4CCN(C)CC4)CC3)CC2)cc1Cl` [Compound 2.07, trans-4-(((trans-4-(3-Chloro-4-methoxyphenyl)cyclohexyl)methyl)(4-(2-cyclopropyloxazol-4-yl)pyridin-2-yl)carbamoyl)cyclohexyl 4-methylpiperazine-1-carboxylate] gave a half-maximal effective concentration (EC50) of at most 50 nM.

For the molecule `COc1ccc(C23CCC(CN(c4cc(-c5cnn(C(C)C)c5)ccn4)C(=O)[C@H]4CC[C@H](OC(=O)NCCC(C)(C)O)CC4)(CC2)CC3)cc1C` [Compound 4.08, 4-((4-(1-Isopropyl-1H-pyrazol-4-yl)pyridin-2-yl)((4-(4-methoxy-3-methylphenyl)bicyclo [2.2.2]octan-1-yl)methyl)carbamoyl)cyclohexyl (3-hydroxy-3-methylbutyl)trans-carbamate], the EC50 was at most 50 nM.

Molecule `COc1c(C)cc(C23CCC(CN(c4cc(-c5cnn(C(C)C)c5)ccn4)C(=O)[C@H]4CC[C@H](OC(=O)N5CC(O)C5)CC4)(CC2)CC3)cc1F` [Compound 26.05, 4-(((4-(3-Fluoro-4-methoxy-5-methylphenyl)bicyclo[2.2.2]octan-1-yl)methyl)(4-(1-isopropyl-1H-pyrazol-4-yl)pyridin-2-yl)carbamoyl)cyclohexyl trans-3-hydroxyazetidine-1-carboxylate] registered an EC50 of at most 50 nM.

`COc1ccc(C23CCC(CN(c4cc(-c5coc(C(C)C)n5)ccn4)C(=O)[C@H]4CC[C@H](OC(=O)N5CC(CO)C5)CC4)(CC2)CC3)cc1C` [Compound 23.01, 4-((4-(2-Isopropyloxazol-4-yl)pyridin-2-yl)((4-(4-methoxy-3-methylphenyl)bicyclo[2.2.2]octan-1-yl)methyl)carbamoyl)(trans-cyclohexyl) 3-(hydroxymethyl)azetidine-1-carboxylate] displayed an EC50 of at most 50 nM.

Take `COc1ccc(C23CCC(CN(c4cc(-c5cnn(C(C)C)c5)ccn4)C(=O)[C@H]4CC[C@H](OC(=O)N5CC(CS(C)(=O)=O)C5)CC4)(CC2)CC3)cc1C` [Compound 4.44, 4-((4-(1-Isopropyl-1H-pyrazol-4-yl)pyridin-2-yl) ((4-(4-methoxy-3-methylphenyl)bicyclo [2.2.2]octan-1-yl)methyl)carbamoyl)cyclohexyl trans-3-((methylsulfonyl)methyl)azetidine-1-carboxylate]: the concentration for a half-maximal effect (EC50) is at most 50 nM.

Molecule `COc1ccc([C@H]2CC[C@H](CN(c3cccc(-c4cnn(C(C)C)c4)c3)C(=O)[C@H]3CC[C@H](CCO)CC3)CC2)cc1C` [Compound 15, trans-4-(2-Hydroxyethyl)-N-(3-(1-isopropyl-1H-pyrazol-4-yl)phenyl)-N-((trans-4-(4-methoxy-3-methylphenyl)cyclohexyl)methyl)cy-clohexanecarboxamide] yielded an EC50 of at most 50 nM.
